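Dose response: 5 concentrations. Exposure: 48 h. Format: 96-well plates. Endpoint: linear interpolation; highest concentration if not reached. At the GI50, growth is halved. TGI is the concentration that stops growth completely.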
How the values were obtained:
Experiment in all cases: growth of human tumour cells (NCI), 48 h
[1] = system: UO-31 renal
[2] = system: OVCAR-3 ovarian
[3] = system: M14 melanoma
[4] = system: UACC-257 melanoma
[5] = system: LOX IMVI melanoma
[6] = system: DU-145 prostate
[7] = system: K-562 leukemia
[8] = system: COLO 205 colon
[9] = system: TK-10 renal
[10] = system: MCF7 breast
[11] = system: SNB-75 CNS
[12] = system: HCC-2998 colon
[13] = system: SN12C renal
[14] = system: SK-MEL-5 melanoma
[15] = system: SF-539 CNS
[16] = system: BT-549 breast
[17] = system: HT29 colon
[18] = system: UACC-62 melanoma
[19] = system: 786-0 renal
[20] = system: HOP-92 NSCLC
[21] = system: OVCAR-5 ovarian
[22] = system: T-47D breast
[23] = system: NCI-H226 lung
[24] = system: HCT-116 colon
[25] = system: EKVX NSCLC
[26] = system: SK-OV-3 ovarian
[27] = system: MDA-MB-435
[28] = system: HL-60(TB) leukemia
[29] = system: NCI-H23 lung
[30] = system: SF-295 CNS
[31] = system: U251 CNS
[32] = system: NCI-H522 lung
[33] = system: MALME-3M melanoma
[34] = system: ACHN renal
[35] = system: SR leukemia
[36] = system: A549 NSCLC
[37] = system: HCT-15 colon
[38] = system: SF-268 CNS
[39] = system: KM12 colon
[40] = system: CAKI-1 renal
[41] = system: SW-620 colon
[42] = system: A498 renal
[43] = system: HS 578T breast
[44] = system: RXF 393 renal
[45] = system: IGROV1 ovarian
[46] = system: NCI-H460 lung
[47] = system: CCRF-CEM leukemia
[48] = system: HOP-62 NSCLC
[49] = system: SK-MEL-2 melanoma
[50] = system: MOLT-4 leukemia
[51] = system: NCI/ADR-RES ovarian
[52] = system: PC-3 prostate
[53] = system: MDA-MB-231 breast
[54] = system: SNB-19 CNS
[55] = system: OVCAR-4 ovarian
[56] = system: OVCAR-8 ovarian
[57] = system: SK-MEL-28 melanoma
[58] = system: RPMI-8226 leukemia

COc1ccc2c(c1)/C(=C/c1cc(OC)c(OC)c(OC)c1)C(=O)N2
GI50 [1]: 2740 nM
TGI [1]: > 100000 nM
TGI [2]: 46.3 nM
GI50 [3]: 351 nM
TGI [3]: 11700 nM
GI50 [4]: 615 nM
TGI [4]: > 100000 nM
GI50 [5]: 443 nM
TGI [5]: > 100000 nM
GI50 [6]: 655 nM
TGI [6]: > 100000 nM
GI50 [7]: < 32.7 nM
TGI [7]: > 36300 nM
GI50 [8]: 517 nM
TGI [8]: 3030 nM
GI50 [9]: 1190 nM
TGI [9]: > 70600 nM
GI50 [10]: 350 nM
TGI [10]: > 100000 nM
GI50 [11]: 483 nM
TGI [11]: 2050 nM
GI50 [12]: 586 nM
TGI [12]: 16000 nM
GI50 [13]: 1180 nM
TGI [13]: > 100000 nM
GI50 [14]: 155 nM
GI50 [15]: 740 nM
TGI [15]: 19500 nM
GI50 [16]: 1370 nM
TGI [16]: > 100000 nM
GI50 [17]: 116 nM
TGI [17]: 21100 nM
GI50 [18]: 370 nM
TGI [18]: > 100000 nM
GI50 [19]: 236 nM
TGI [19]: > 94300 nM
GI50 [20]: 1430 nM
TGI [20]: > 33900 nM
GI50 [21]: 1900 nM
TGI [21]: > 100000 nM
GI50 [22]: 385 nM
GI50 [23]: > 30900 nM
TGI [23]: > 100000 nM
GI50 [24]: 27.2 nM
TGI [24]: > 100000 nM
GI50 [25]: 11600 nM
TGI [25]: > 100000 nM
GI50 [26]: 260 nM
TGI [26]: 5230 nM
GI50 [27]: 31.8 nM
TGI [27]: 253 nM
GI50 [28]: 90.8 nM
TGI [28]: > 100000 nM
GI50 [29]: 613 nM
TGI [29]: > 63200 nM
GI50 [30]: 104 nM
TGI [30]: 602 nM
GI50 [31]: 407 nM
TGI [31]: 16700 nM
GI50 [32]: 250 nM
GI50 [33]: 556 nM
TGI [33]: > 100000 nM
GI50 [34]: 4190 nM
TGI [34]: > 100000 nM
TGI [35]: 590 nM
GI50 [36]: 603 nM
TGI [36]: > 100000 nM
GI50 [37]: 393 nM
TGI [37]: > 100000 nM
GI50 [38]: 419 nM
TGI [38]: > 100000 nM
GI50 [39]: 102 nM
TGI [39]: > 39900 nM
GI50 [40]: 118 nM
GI50 [41]: 175 nM
TGI [41]: > 100000 nM
GI50 [42]: 146 nM
TGI [42]: 848 nM
GI50 [43]: 362 nM
TGI [43]: 12800 nM
GI50 [44]: 187 nM
TGI [44]: 587 nM
GI50 [45]: 268 nM
TGI [45]: > 53800 nM
GI50 [46]: 269 nM
TGI [46]: > 100000 nM
GI50 [47]: 253 nM
GI50 [48]: 137 nM
TGI [48]: > 47500 nM
GI50 [49]: 1180 nM
GI50 [50]: 216 nM
TGI [50]: > 100000 nM
GI50 [51]: 142 nM
TGI [51]: 1740 nM
GI50 [52]: 364 nM
TGI [52]: > 100000 nM
GI50 [53]: 1510 nM
TGI [53]: 66800 nM
GI50 [54]: 433 nM
TGI [54]: > 100000 nM
TGI [55]: > 100000 nM
GI50 [56]: 1280 nM
TGI [56]: > 100000 nM
GI50 [57]: > 100000 nM
TGI [57]: > 100000 nM
GI50 [58]: 275 nM
TGI [58]: 1180 nM

From PubChem BioAssay (NCI)
